Test results as given in patent publication US20240277689A1, “METHOD OF TREATING AN AUTOIMMUNE HEMATOLOGICAL DISORDER” (Novartis AG, priority 2021, published 2024).

Experiments:
AP activity (Wieslab) = assay: First in human (FIH) studies: suppression of AP activity (Wieslab); type: in vivo
Method: In the FIH studies, there was rapid suppression of the AP activity (Wieslab) with approximately 80% or greater inhibition achieved at two hours post-dose for participants receiving single dose of 200 mg iptacopan. The suppression of the AP (80% or greater inhibition) was sustained over 14 days of dosing at 200 mg b.i.d. The exposure-response model developed with data from the FIH study with iptacopan in healthy volunteers predicts that a dose of about 200 mg b.i.d. would be needed to achieve >90% inhibition of the AP (Wieslab assay) in most participants. Preclinical studies supported acceptable safety margins for human exposure following 200 mg b.i.d. dosing.
Given the observed PK/PD profile in a first in human study in healthy volunteers, a 200 mg b.i.d dose of iptacopan is selected for this study.

[1] = system: complement alternative pathway; conditions: multiple in vitro and in vivo non-clinical mechanistic studies; cited from earlier work

CCO[C@H]1CCN(Cc2c(OC)cc(C)c3[nH]ccc23)[C@H](c2ccc(C(=O)O)cc2)C1 [iptacopan, 4-((2S,4S)-(4-ethoxy-1-((5-methoxy-7-methyl-1H-indol-4-yl)methyl)piperidin-2-yl))benzoic acid]
suppression of the AP (inhibition), sustained (AP activity (Wieslab); over 14 days of dosing at 200 mg b.i.d.): ≥ 80%
inhibition of AP activity (Wieslab) (AP activity (Wieslab); two hours post-dose, single dose of 200 mg, FIH participants): ≥ 80%
inhibition of the complement alternative pathway [1]: demonstrated inhibition of the complement alternative pathway
